Several values for one entry are separate records, joined by “and”; a condition that tells them apart may be missing. Equal values may be shown once. Non-standard residues stand in square brackets, D forms with d. Residues, ends and D or L forms follow the SMILES beside them.
Experiments:
human red blood cells = assay: Haemolysis assay; assay type: cell-based; details: human red blood cells in PBS, 1 h 37 °C, OD550, relative to 0.1% Triton-X-100
Protocol: Haemolysis was tested by incubating titrations of AMPs in PBS with freshly collected human red blood cells for 1 h at 37 °C. Control wells were treated with 0.1% Triton-X-100 to ensure complete lysis, or PBS-only to represent no lysis. Samples were spun down to remove non-lysed cells and the OD550 of the supernatant was measured using a Clariostar plate reader. The percentage of haemolysis was calculated as % haemolysis = (AP − AB)/(AC − AB) × 100, where AP is the absorbance value for a known peptide concentration, AC is the absorbance of the 0.1% Triton-X-100 control, AB is the absorbance of the PBS control. Data presented are averages and standard error from three biological replicate experiments.

EMRSA-15 [1] = assay: 1H HR-MAS NMR metabolomics of bacterial pellets; assay type: cell-based, Staphylococcus aureus; details: EMRSA-15 in MHB, sub-inhibitory challenge v unchallenged; fold change, 1H HR-MAS NMR of pellets
Protocol: S. aureus EMRSA-15 and P. aeruginosa RP73 were streaked on Mueller Hinton agar plates and RPMI (supplemented with 5% FBS) agar plates and incubated at 37 °C overnight or until single colonies formed. […] Cultures were incubated overnight at 37 °C without shaking and pelleted by centrifugation at 4 °C. The supernatant was removed and filtered separately for spent media analysis, the pellet was briefly washed three times with phosphate buffered saline (PBS). The pellets were frozen in liquid nitrogen and lyophilised overnight in an Alpha 1–2 LD plus freeze dryer (Martin Christ, Germany) and stored at −20 °C until required. Samples were transferred into HR-MAS inserts for use in 4 mm Bruker MAS rotor and resuspended in 30 μl of D2O containing 3-(Trimethylsilyl)propionic-2,2,3,3-D4 acid sodium salt (TMSP-2,2,3,3-D4). The removed supernatant was filtered through 0.2 μm filters and pH adjusted to within 0.3 pH units within the same sample set. The samples were supplemented with 10% D2O containing TMSP-2,2,3,3-D4 and loaded into 5.0 mm NMR tubes.
NMR spectra were collected at 600 MHz for ^1H on a Bruker Avance II spectrometer (Bruker Biospin, Coventry, UK) with a 4 mm HR-MAS probe at 310 K while spinning at 5 kHz. ^1H NMR spectra were acquired using a Carr-Purcell Meiboom-Gill pre-saturation (cpmgpr1d) pulse sequence with a spectrum width of 16.0 ppm and 9615 data points using 64 transients. Free induction decay was multiplied by an exponential function with 0.293 Hz line broadening. 2D ^1H–^1H correlation spectroscopy (COSY) and ^1H–^13C Heteronuclear Single Quantum Correlation (HSQC) experiments were performed on representative datasets using standard Bruker settings.
The spectra were Fourier transformed automatically using standard Bruker commands and manually phased and baseline corrected in Bruker TopSpin 4.0 (Bruker Biospin, Coventry, UK). Spectral pre-processing, cross-validation and multivariate analysis were carried out using the in-house programme developed by Dr Louic Vermeer and MVAPACK, an opensource Octave library for NMR metabolomic data processing and analysis. Pre-processing modifies NMR spectra and reduces the variances and influences which are not of interest and may interfere with data analysis, for example, residual water peak or noise and the TSP reference peak. Initially a principle component analysis was carried out to identify clustering spectra and potential outliers in the data, due to e.g. poor baseline. Data were then subject to probabilistic quotient normalisation before binning and alignment. Orthogonal Projections to Latent Structures Discriminant Analysis analyses were conducted to establish the quality of binary comparisons of the metabolomic data (Supplementary Table 4). […] The Mann–Whitney U test was used to compare means and associated p values were false discovery rate adjusted using the Benjamini-Hochberg method (α = 0.05). Box plots were generated using changes in normalised intensity for each metabolite and significant differences between challenges and controls were determined using a one-way ANOVA. Volcano plots and box plots were generated using in-house software developed for Jupyter Notepad using Python 3.7.0. Metabolites were assigned using the databanks: Chenomx NMR suite software (Chenomx Inc., Canada), Human Metabolome Database, BMRB, E. coli Metabolome Database and AOCS lipid library; and a comparison of chemical shifts to the literature, which was confirmed using 2D NMR spectra. Annotated spectra can be found in the supplementary materials (Supplementary Fig. 15). Metaboanalyst and KEGG were later used to identify key pathways that may be affected by these metabolites.

EMRSA-15 [2] = assay: Murine EMRSA-15 lung infection model: lung CFU; assay type: in vivo, C57Bl6J mice
Text: CFUs were quantified in lung homogenates.

[3] = Murine EMRSA-15 lung infection model: body weight; assay type: in vivo, C57Bl6J mice
BAL cells = assay: Murine EMRSA-15 lung infection model: BAL total and differential cell count; assay type: in vivo, C57Bl6J mice; details: 48 h
Protocol: Using the recently developed method[65], an overnight culture of EMRSA-15 was prepared in tryptic soy broth (TSB). EMRSA-15 was cultured in TSB overnight at 37 °C, adjusted to a starting OD600 of 0.025, and grown for additional 4 h for agar beads preparation. EMRSA-15 was embedded into agar beads by mixing the overnight culture with molten tryptic soy agar, which was then spun into warmed mineral oil. The preparation was cooled and centrifuged at 2700 × g, the remaining oil was eliminated, and the beads were washed in sterile PBS. The CFU content of the beads slurry was subsequently quantified on TSA plates and the beads slurry then diluted to 2 × 10^7 CFU/ml in sterile PBS to deliver a final dose of 1 × 10^6 CFU/mouse. Animal work was performed in accordance with the Animals (Scientific Procedures) Act of 1986 (United Kingdom) and 2012 revisions with local ethical approval of King’s College London. On day 0, male C57Bl6J mice (8–10 weeks, Charles River) were anaesthetised under Isoflurane and 50 µl inoculum of EMRSA-15 embedded in agar beads (10^6 CFU/mouse) was instilled directly into the respiratory tract via oropharyngeal dosing (o.a.). Sham control mice were inoculated with sterile PBS agar beads. […] Body weight was measured daily, and animals monitored at regular intervals for signs of pain and distress. After 48 h of pulmonary infection, animals were terminally euthanized using 25% urethane via intra-peritoneal injection. CFUs were quantified in lung homogenates. Lung homogenates were then centrifuged at 14000 rpm for 30 min at 4 °C and the supernatants were stored at −80 °C for future analysis. For BAL fluid collection and analysis (total and differential cell count), a 22-gauge catheter was inserted into the trachea and BAL was recovered by instillation of 0.5 ml of sterile PBS three times and total cells counts were performed by adding Turks stain in a 1:1 ratio. BAL fluid was then centrifuged, and supernatants were stored at −20 °C. Total levels of TNFα, IL-6, KC and MCP-1 were quantified from BAL fluid collected from all animals and measured by ELISA according to the manufacturer protocol (R&D Systems UK). Concentrations of all mediators were then normalised to total protein content of BAL fluid quantified via bicinchoninic acid total protein assays performed to manufacturers protocols (Thermofisher Scientific). […] Statistical analysis was by one-way ANOVA with Dunnett’s multiple comparisons test.

IL-6 = assay: Murine EMRSA-15 lung infection model: BAL cytokine ELISA; assay type: in vivo, C57Bl6J mice; details: 600 mg/kg vancomycin or D-pleurocidin-KR (also lowest dose 0.15 mg/kg) i.v., 48 h
KC = assay: as above; assay type: in vivo, C57Bl6J mice; details: 600 mg/kg vancomycin or the two higher D-pleurocidin-KR doses (15, 1.5 mg/kg) i.v., 48 h
[4] = in words

**Q.** Which results are given for `CC(C)C[C@@H](NC(=O)[C@@H](Cc1ccc(O)cc1)NC(=O)[C@@H](Cc1c[nH]cn1)NC(=O)[C@H](NC(=O)[C@@H](CC(C)C)NC(=O)[C@@H](C)NC(=O)[C@@H](C)NC(=O)[C@@H](CCCNC(=N)N)NC(=O)CNC(=O)[C@H](NC(=O)[C@@H](Cc1c[nH]cn1)NC(=O)[C@@H](CCCNC(=N)N)NC(=O)CNC(=O)[C@H](NC(=O)[C@@H](Cc1c[nH]cn1)NC(=O)[C@@H](C)NC(=O)[C@@H](C)NC(=O)[C@@H](CCCNC(=N)N)NC(=O)[C@@H](CCCNC(=N)N)NC(=O)[C@@H](Cc1ccccc1)NC(=O)[C@@H](Cc1ccccc1)NC(=O)[C@@H](CO)NC(=O)CNC(=O)[C@@H](Cc1c[nH]c2ccccc12)NC(=O)CN)C(C)C)C(C)C)[C@H](C)O)C(N)=O` [D-pleurocidin-KR] (H-G[dW]G[dS][dF][dF][dR][dR][dA][dA][dH][dV]G[dR][dH][dV]G[dR][dA][dA][dL][dT][dH][dY][dL]-NH2; N-terminus assumed)?
**A.** haemolysis at the highest concentration tested 400 µg/ml (human red blood cells): 50%; concentration at which 10% haemolysis is achieved (human red blood cells; three biological replicates): above 64 µg/ml and ~ 75 µg/ml; fc 2-aminobutyrate (EMRSA-15 [1]): 0.991; fc Acetate (EMRSA-15 [1]): 1.149; fc Acetyl-Phosphocholine (1) (EMRSA-15 [1]): 0.9923; fc Acetyl-Phosphocholine (2) (EMRSA-15 [1]): 1.003; fc Adenosine (EMRSA-15 [1]): 1.125; fc Alanine (EMRSA-15 [1]): 0.9478; fc Aspartate (EMRSA-15 [1]): 0.8483; fc Betaine (EMRSA-15 [1]): 0.9779; fc Choline (EMRSA-15 [1]): 1.051; fc Citrulline (EMRSA-15 [1]): 0.9363; fc Glutamate (EMRSA-15 [1]): 0.896; fc Glycerol (lipid headgroup) (1) (EMRSA-15 [1]): 0.9028; fc Glycerol (lipid headgroup) (2) (EMRSA-15 [1]): 1.031; fc Glycerol (lipid headgroup) (3) (EMRSA-15 [1]): 0.9777; fc Isoleucine (EMRSA-15 [1]): 1.148; fc Lactate (EMRSA-15 [1]): 1.293; fc Leucine (EMRSA-15 [1]): 1.172; fc Lipid -CH=CH- (EMRSA-15 [1]): 1.134; fc Lipid-CH₃ (EMRSA-15 [1]): 1.116; fc Lysine (EMRSA-15 [1]): 1.027; fc N-acetyl-x (1) (EMRSA-15 [1]): 0.8941; fc N-acetyl-x (2) (EMRSA-15 [1]): 1.036; fc N-acetyl-x (3) (EMRSA-15 [1]): 0.9489; fc Proline (EMRSA-15 [1]): 1.056; fc Succinate (EMRSA-15 [1]): 0.8785; fc Unassigned 1.47ppm (EMRSA-15 [1]): 0.8868; fc Unassigned 3.4802ppm (EMRSA-15 [1]): 0.9293; fc Unassigned 8.55ppm (EMRSA-15 [1]): 0.9285; fc Uracil (EMRSA-15 [1]): 1.738; fc Valine (EMRSA-15 [1]): 1.029; fc ᴅ-alanine (LTA) (EMRSA-15 [1]): 1.157; reduction in lung CFU (EMRSA-15 [2]; cumulative 1.5 mg/kg/48 h i.v. (three doses at 4, 24, 30 h post infection)): 0.9 log10; reduction in lung CFU (EMRSA-15 [2]; cumulative 15 mg/kg/48 h i.v. (three doses at 4, 24, 30 h post infection)): 1.1 log10; reduction in lung CFU (EMRSA-15 [2]; lowest dose, cumulative 0.15 mg/kg i.v., 48 h): did not cause a significant reduction; weight loss over the 48-h infection period ([3]; cumulative 15 or 1.5 mg/kg/48 h D-pleurocidin-KR, 600 mg/kg vancomycin, i.v.): mitigates this weight loss; weight loss over the 48-h infection period ([3]; lowest dose of 0.15 mg/kg D-pleurocidin-KR i.v.): no observable effect; neutrophil recruitment (BAL) (BAL cells; 600 mg/kg vancomycin or D-pleurocidin-KR (also lowest dose 0.15 mg/kg) i.v.): reduced; macrophage numbers in BAL (BAL cells; vancomycin or D-pleurocidin-KR i.v.): No effects; IL-6 in BAL (IL-6): reduced; KC levels in BAL (KC): fall to that of the uninfected group; solubility in aqueous media [4]: readily soluble

Reference: publication PMC7699649 (Communications Biology, 2020)
